# From the NIST ThermoML archive (doi:10.1021/je200921u)
# ± gives the expanded uncertainty stated by the source.
# Conditions: Liquid, Ebulliometric method (Recirculating still)
smiles,measurement,setting,value
CCO [ethanol],vapor or sublimation pressure,351.35 K,101.3 ± 2.6 kPa
same,vapor or sublimation pressure,356.11 K,121.3 ± 3.1 kPa
same,vapor or sublimation pressure,363.55 K,161.3 ± 4.1 kPa
same,vapor or sublimation pressure,369.55 K,201.3 ± 5.1 kPa
CC(C)O [propan-2-ol],vapor or sublimation pressure,355.35 K,101.3 ± 2.6 kPa
same,vapor or sublimation pressure,359.95 K,121.3 ± 3.1 kPa
same,vapor or sublimation pressure,367.65 K,161.3 ± 4.1 kPa
same,vapor or sublimation pressure,373.65 K,201.3 ± 5.1 kPa
Cc1ccccc1 [toluene],vapor or sublimation pressure,383.55 K,101.3 ± 2.7 kPa
same,vapor or sublimation pressure,390.25 K,121.3 ± 3.2 kPa
same,vapor or sublimation pressure,390.26 K,121.3 ± 3.2 kPa
same,vapor or sublimation pressure,400.75 K,161.3 ± 4.3 kPa
same,vapor or sublimation pressure,409.65 K,201.3 ± 5.3 kPa
